Data published in ChEMBL document CHEMBL1141903, “Synthesis and evaluation of CCR5 antagonists containing modified 4-piperidinyl-2-phenyl-1-(phenylsulfonylamino)-butane” (Bioorg Med Chem Lett, 2005).

Assays:
[1] = biological target: C-C chemokine receptor type 5 (Homo sapiens, UniProt P51681); assay: Inhibitory concentration against human C-C chemokine receptor type 5 in CHO cells with [125I]-MIP-1 alpha radioligand; assay type: cell-based
[2] = system: Human immunodeficiency virus 1; assay: Antiviral activity in an in vitro HIV replication assay; assay type: functional, organism-based

Sequence of C-C chemokine receptor type 5 (P51681 whole entry): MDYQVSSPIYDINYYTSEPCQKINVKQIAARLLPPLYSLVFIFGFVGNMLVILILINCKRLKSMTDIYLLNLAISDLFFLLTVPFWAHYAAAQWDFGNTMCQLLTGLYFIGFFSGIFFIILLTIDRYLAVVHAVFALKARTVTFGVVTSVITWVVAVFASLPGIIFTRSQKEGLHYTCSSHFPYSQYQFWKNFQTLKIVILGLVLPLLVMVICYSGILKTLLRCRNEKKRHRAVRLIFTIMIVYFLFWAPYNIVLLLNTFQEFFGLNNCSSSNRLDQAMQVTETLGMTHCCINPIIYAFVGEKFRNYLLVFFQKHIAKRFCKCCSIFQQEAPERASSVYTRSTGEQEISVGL

| IC50 [1] | IC90 ([2]; Human immunodeficiency virus 1) | IC90 [2] | SMILES |
| --- | --- | --- | --- |
| 36.7 nM |  |  | C[C@H]1[C@@H](c2ccccc2)OC(=O)N1C1CCN(CC[C@H](CN(C)S(=O)(=O)c2ccccc2)c2ccccc2)CC1 |
| > 2000 nM |  |  | CN(C[C@@](C)(CCN1CCC2NCCC2C1)c1ccccc1)S(=O)(=O)c1ccccc1 (mixture of isomers) |
| 31.9 nM |  |  | CN(C[C@@H](CCN1CCC(N2C[C@@H](c3ccccc3)OC2=O)CC1)c1ccccc1)S(=O)(=O)c1ccccc1 |
| 2 nM | 100 nM |  | CN(CC(C)(CCN1CCC2C(CCN2C(=O)OC(C)(C)C)C1)c1ccccc1)S(=O)(=O)c1ccccc1 (single isomer, unassigned; isomer B) |
| 9 nM | > 300 nM |  | CN(C[C@@](C)(CCN1CCC2C(CCN2C(=O)OCc2ccccc2)C1)c1ccccc1)S(=O)(=O)c1ccccc1 (mixture of isomers) |
| 28 nM | > 300 nM |  | CN1C(=O)CCC2CN(CC[C@](C)(CN(C)S(=O)(=O)c3ccccc3)c3ccccc3)CCC21 (mixture of isomers) |
| 6.4 nM | 111 nM |  | CN(C[C@@](C)(CCN1CCC2C(CCN2C(=O)Cc2ccccc2)C1)c1ccccc1)S(=O)(=O)c1ccccc1 (mixture of isomers) |
| 2 nM |  | 33 nM | CN(CC(C)(CCN1CCC2C(CCN2C(=O)OCc2ccc([N+](=O)[O-])cc2)C1)c1ccccc1)S(=O)(=O)c1ccccc1 (single isomer, unassigned; isomer B) |
| 1 nM | 3 nM |  | C=CCN(C(=O)OCc1ccc([N+](=O)[O-])cc1)C1CCN(CC[C@](C)(CN(C)S(=O)(=O)c2ccccc2)c2ccccc2)CC1 |
| 5.3 nM | 333 nM |  | CN(C[C@@](C)(CCN1CCC2C(CCC(=O)N2Cc2ccc([N+](=O)[O-])cc2)C1)c1ccccc1)S(=O)(=O)c1ccccc1 (mixture of isomers) |
| 16 nM |  |  | CN(C[C@@H](CCN1CCC2C(CCN2C(=O)OC(C)(C)C)C1)c1ccccc1)S(=O)(=O)c1ccccc1 (some centres undefined) |
| 10 nM | 333 nM |  | CN(C[C@@](C)(CCN1CCC2C(CCC(=O)N2Cc2ccccc2)C1)c1ccccc1)S(=O)(=O)c1ccccc1 (some centres undefined) |
| 11 nM | 111 nM |  | CN(C[C@@](C)(CCN1CCC2C(CCN2C(=O)OC(C)(C)C)C1)c1ccccc1)S(=O)(=O)c1ccccc1 (mixture of isomers) |
| 3.6 nM | 111 nM |  | CN(C[C@](C)(CCN1CCC2C(CCN2C(=O)OCc2ccc([N+](=O)[O-])cc2)C1)c1ccccc1)S(=O)(=O)c1ccccc1 (mixture of isomers) |
| > 100 nM |  |  | CN(C[C@@H](CCN1CCC(N2C[C@H](c3ccccc3)OC2=O)CC1)c1ccccc1)S(=O)(=O)c1ccccc1 |
| 21 nM |  | 300 nM | CN(CC(C)(CCN1CCC2C(CCN2C(=O)OCc2ccc([N+](=O)[O-])cc2)C1)c1ccccc1)S(=O)(=O)c1ccccc1 (single isomer, unassigned; isomer A) |
| > 2000 nM |  |  | CN(CC(C)(CCN1CCC2C(CCN2C(=O)OC(C)(C)C)C1)c1ccccc1)S(=O)(=O)c1ccccc1 (single isomer, unassigned; isomer A) |
| 350 nM |  |  | C[C@@H]1[C@@H](c2ccccc2)OC(=O)N1C1CCN(CC[C@H](CN(C)S(=O)(=O)c2ccccc2)c2ccccc2)CC1 |
